From US9718790B2, “Triazine derivative and pharmaceutical composition having an analgesic activity comprising the same” (SHIONOGI & CO., LTD., priority 2010, dated 2017)

Target: human P2X3 receptor (Homo sapiens (Human), UniProt P56373)
Assay: Evaluation of human P2X3 receptor inhibitory activity (Fluo-3 calcium fluorescence, FDSS 3000, ATP stimulation);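 further: stimulus was 50 nM ATP with fluorescence followed for 3 min, and the response per well was peak post-ATP fluorescence divided by the reading at measurement start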
Type: cell-based
Settings: C6BU-1 cells stably expressing human P2X3 receptor, Fluo-3 fluorescence, FDSS 3000

human P2X3 receptor, sequence (P56373 whole entry): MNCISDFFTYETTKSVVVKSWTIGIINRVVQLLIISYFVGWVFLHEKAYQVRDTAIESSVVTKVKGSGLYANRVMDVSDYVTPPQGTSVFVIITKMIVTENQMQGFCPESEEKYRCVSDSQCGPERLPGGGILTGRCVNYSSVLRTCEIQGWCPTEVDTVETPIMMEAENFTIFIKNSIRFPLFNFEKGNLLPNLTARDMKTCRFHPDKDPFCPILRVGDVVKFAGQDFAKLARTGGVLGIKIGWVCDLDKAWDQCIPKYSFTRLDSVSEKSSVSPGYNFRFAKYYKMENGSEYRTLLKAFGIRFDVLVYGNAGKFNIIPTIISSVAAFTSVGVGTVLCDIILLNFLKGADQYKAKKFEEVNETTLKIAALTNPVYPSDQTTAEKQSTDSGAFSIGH

SMILES	IC50
CCc1nc2ccc(/N=c3\[nH]c(=O)n(CC(C)(C)C(=O)OC)c(=O)n3Cc3ccc(Cl)cc3)cc2s1 [Compound I-1572]	5 nM
CCc1nc2ccc(/N=c3\[nH]c(=O)n(CC(C)(C)C(=O)OC)c(=O)n3Cc3ccc(C)cc3)cc2s1 [Compound I-1573]	4 nM
CCc1oc2ccc(/N=c3\[nH]c(=O)n(CC(C)(C)C(=O)OC)c(=O)n3Cc3ccc(Cl)cc3)cc2c1C [Compound I-1574]	18 nM
CCc1oc2ccc(/N=c3\[nH]c(=O)n(CC(C)(C)C(=O)OC)c(=O)n3Cc3ccc(C)cc3)cc2c1C [Compound I-1575]	9 nM
Cc1nc2ccc(/N=c3\[nH]c(=O)n(CC(C)(C)C(=O)O)c(=O)n3Cc3ccc(Cl)cc3)cc2s1 [Compound I-1576]	8 nM
Cc1ccc(Cn2c(=O)n(CC(C)(C)C(=O)O)c(=O)[nH]/c2=N\c2ccc3nc(C)sc3c2)cc1 [Compound I-1577]	7 nM
CCc1nc2ccc(/N=c3\[nH]c(=O)n(CC(C)(C)C(=O)O)c(=O)n3Cc3ccc(Cl)cc3)cc2s1 [Compound I-1578]	6 nM
Cc1ccc(Cn2c(=O)n(C[C@H](C)CO)c(=O)[nH]/c2=N\c2ccc(CC(C)C)c(Cl)c2)cc1 [Compound I-1579]	7 nM
CCc1nc2ccc(/N=c3\[nH]c(=O)n(CC(C)(C)C(=O)O)c(=O)n3Cc3ccc(C)cc3)cc2s1 [Compound I-1580]	6 nM
CCc1oc2ccc(/N=c3\[nH]c(=O)n(CC(C)(C)C(=O)O)c(=O)n3Cc3ccc(Cl)cc3)cc2c1C [Compound I-1581]	7 nM
CCc1oc2ccc(/N=c3\[nH]c(=O)n(CC(C)(C)C(=O)O)c(=O)n3Cc3ccc(C)cc3)cc2c1C [Compound I-1582]	7 nM
CCn1c(C)nc2cc(/N=c3\[nH]c(=O)n([C@@H](C)[C@@H](C)C(=O)O)c(=O)n3Cc3ccc(Cl)cc3)ccc21 [Compound I-1583]	332 nM
CC(C)c1nc2ccc(/N=c3\[nH]c(=O)n([C@@H](C)[C@@H](C)C(=O)O)c(=O)n3Cc3ccc(Cl)cc3)cc2s1 [Compound I-1585]	14 nM
C[C@@H](C(=O)O)[C@H](C)n1c(=O)[nH]/c(=N\c2ccc3nc(C4CC4)sc3c2)n(Cc2ccc(Cl)cc2)c1=O [Compound I-1586]	13 nM
COc1ccc2cc(/N=c3\[nH]c(=O)n([C@@H](C)[C@@H](C)C(=O)O)c(=O)n3Cc3ccc(Cl)cc3)ccc2n1 [Compound I-1587]	38 nM
Cc1cc2cc(/N=c3\[nH]c(=O)n([C@@H](C)[C@@H](C)C(=O)O)c(=O)n3Cc3ccc(Cl)cc3)cc(Cl)c2o1 [Compound I-1588]	67 nM
C[C@@H](C(=O)O)[C@H](C)n1c(=O)[nH]/c(=N\c2ccc3ncsc3c2)n(Cc2ccc(Cl)cc2)c1=O [Compound I-1589]	158 nM
C[C@@H](C(=O)O)[C@H](C)n1c(=O)[nH]/c(=N\c2ccc3sccc3c2)n(Cc2ccc(Cl)cc2)c1=O [Compound I-1590]	998 nM
Cc1ccc(Cn2c(=O)n(C[C@H](C)C(=O)O)c(=O)[nH]/c2=N\c2ccc(Oc3ccn(C)c(=O)c3)cc2)cc1 [Compound I-1595]	6 nM
O=c1[nH]/c(=N\c2ccc(Oc3cncc(F)c3)cc2)n(Cc2ccc(Cl)cc2)c(=O)n1CCCO [Compound I-1596]	4 nM
Cc1ccc(Oc2ccc(/N=c3\[nH]c(=O)n(CCCO)c(=O)n3Cc3ccc(Cl)cc3)cc2)cn1 [Compound I-1597]	4 nM
CCn1c(=O)[nH]/c(=N\c2ccc(Oc3ccnc(C)c3)cc2)n(Cc2ccc(Cl)cc2)c1=O [Compound I-1598]	5 nM

SMILES	IC50
Cc1cc(Oc2ccc(/N=c3\[nH]c(=O)n(CCCO)c(=O)n3Cc3ccc(Cl)cc3)cc2)ccn1 [Compound I-1599]	5 nM
CNC(=O)CCn1c(=O)[nH]/c(=N\c2ccc(Oc3ccc(O)nc3)cc2)n(Cc2ccc(Cl)cc2)c1=O [Compound I-1600]	11 nM
CNC(=O)[C@@H](C)Cn1c(=O)[nH]/c(=N\c2ccc(Oc3ccc(O)nc3)cc2)n(Cc2ccc(C)cc2)c1=O [Compound I-1601]	24 nM
COC(=O)Cn1c(=O)[nH]/c(=N\c2ccc3nc(C)sc3c2)n(Cc2ccc(Cl)cc2)c1=O [Compound I-1602]	5 nM
Cc1nc2ccc(/N=c3\[nH]c(=O)n(C[C@H]4COC(C)(C)O4)c(=O)n3Cc3ccc(Cl)cc3)cc2s1 [Compound I-1603]	5 nM
CCc1oc2ccc(/N=c3\[nH]c(=O)n(C[C@H]4COC(C)(C)O4)c(=O)n3Cc3ccc(Cl)cc3)cc2c1C [Compound I-1604]	8 nM
COC(=O)[C@@H](C)Cn1c(=O)[nH]/c(=N\c2ccc(OC3CC3)c(Cl)c2)n(Cc2ccc(C)cc2)c1=O [Compound I-1605]	18 nM
CCOC(=O)CCn1c(=O)[nH]/c(=N\c2ccc(OC3CC3)c(Cl)c2)n(Cc2ccc(C)cc2)c1=O [Compound I-1606]	15 nM
Cc1ccc(Cn2c(=O)n(C[C@H](C)C(=O)O)c(=O)[nH]/c2=N\c2ccc(OC3CC3)c(Cl)c2)cc1 [Compound I-1607]	35 nM
Cc1ccc(Cn2c(=O)n(CCC(=O)O)c(=O)[nH]/c2=N\c2ccc(OC3CC3)c(Cl)c2)cc1 [Compound I-1608]	100 nM
CCc1oc2ccc(/N=c3\[nH]c(=O)n(CC(=O)O)c(=O)n3Cc3ccc(Cl)cc3)cc2c1C [Compound I-1609]	187 nM
Cc1nc2ccc(/N=c3\[nH]c(=O)n(CC(=O)O)c(=O)n3Cc3ccc(Cl)cc3)cc2s1 [Compound I-1610]	251 nM
CC(=O)NCCn1c(=O)[nH]/c(=N\c2ccc(CC(C)C)c(Cl)c2)n(Cc2ccc(Cl)cc2)c1=O [Compound I-1611]	8 nM
CCc1nc2ccc(/N=c3\[nH]c(=O)n(CCNC(C)=O)c(=O)n3Cc3ccc(Cl)cc3)cc2s1 [Compound I-1612]	5 nM
CCc1nc2ccc(/N=c3\[nH]c(=O)n(CCCNC(C)=O)c(=O)n3Cc3ccc(Cl)cc3)cc2s1 [Compound I-1613]	6 nM
CC(=O)NCCCn1c(=O)[nH]/c(=N\c2ccc(CC(C)C)c(Cl)c2)n(Cc2ccc(Cl)cc2)c1=O [Compound I-1614]	9 nM
CC(=O)NCCCn1c(=O)[nH]/c(=N\c2ccc(O[C@H](C)C(F)(F)F)cc2)n(Cc2ccc(Cl)cc2)c1=O [Compound I-1615]	12 nM
Cc1ccc(Cn2c(=O)n(C[C@H](C)C(N)=O)c(=O)[nH]/c2=N\c2ccc(CC(C)C)c(Cl)c2)cc1 [Compound I-1616]	7 nM
CC(=O)NCCn1c(=O)[nH]/c(=N\c2ccc(O[C@H](C)C(F)(F)F)cc2)n(Cc2ccc(Cl)cc2)c1=O [Compound I-1617]	27 nM
Cc1nc2ccc(/N=c3\[nH]c(=O)n(C[C@H](O)CO)c(=O)n3Cc3ccc(Cl)cc3)cc2s1 [Compound I-1618]	8 nM
Cc1nc2ccc(/N=c3\[nH]c(=O)n(CCCO)c(=O)n3Cc3ccc(Cl)cc3)cc2s1 [Compound I-1619]	6 nM
C[C@@H](Oc1ccc(/N=c2\[nH]c(=O)n(CCCO)c(=O)n2Cc2ccc(Cl)cc2)cc1)C(F)(F)F [Compound I-1620]	14 nM

SMILES	IC50
CCn1c(=O)[nH]/c(=N\c2ccc(Oc3ccnc(O)c3)cc2)n(Cc2ccc(Cl)cc2)c1=O [Compound I-1621]	4 nM
CCc1nc2ccc(/N=c3\[nH]c(=O)n(CCCO)c(=O)n3Cc3ccc(Cl)cc3)cc2s1 [Compound I-1622]	4 nM
CC[C@@H](C)Oc1ccc(/N=c2\[nH]c(=O)n(CCCO)c(=O)n2Cc2ccc(Cl)cc2)cc1Cl [Compound I-1623]	7 nM
CCc1oc2ccc(/N=c3\[nH]c(=O)n(C[C@H](O)CO)c(=O)n3Cc3ccc(Cl)cc3)cc2c1C [Compound I-1624]	8 nM
CCc1oc2ccc(/N=c3\[nH]c(=O)n(CCCO)c(=O)n3Cc3ccc(Cl)cc3)cc2c1C [Compound I-1625]	6 nM
CC[C@@H](C)Oc1ccc(/N=c2\[nH]c(=O)n(C[C@H](C)C(=O)O)c(=O)n2Cc2ccc(Cl)cn2)cc1Cl [Compound I-1626]	18 nM
CCOC(=O)CCCn1c(=O)[nH]/c(=N\c2ccc3oc(CC)c(C)c3c2)n(Cc2ccc(C)cc2)c1=O [Compound I-1627]	9 nM
O=C(O)CCn1c(=O)[nH]/c(=N\c2ccc(OCc3ccccn3)cc2)n(Cc2ccc(Cl)cc2)c1=O [Compound I-1628]	683 nM
CCOC(=O)CCCn1c(=O)[nH]/c(=N\c2ccc3nc(CC)sc3c2)n(Cc2ccc(C)cc2)c1=O [Compound I-1629]	4 nM
CCc1oc2ccc(/N=c3\[nH]c(=O)n(CCCC(=O)O)c(=O)n3Cc3ccc(C)cc3)cc2c1C [Compound I-1630]	15 nM
CCc1nc2ccc(/N=c3\[nH]c(=O)n(CCCC(=O)O)c(=O)n3Cc3ccc(C)cc3)cc2s1 [Compound I-1631]	8 nM
O=C(O)CCn1c(=O)[nH]/c(=N\c2ccc(OCc3cccnc3)cc2)n(Cc2ccc(Cl)cc2)c1=O [Compound I-1632]	389 nM
CCc1oc2ccc(/N=c3\[nH]c(=O)n(CCO)c(=O)n3Cc3ccc(Cl)cc3)cc2c1C [Compound I-1633]	16 nM
Cc1nc2ccc(/N=c3\[nH]c(=O)n(CC4(C)COC(C)(C)OC4)c(=O)n3Cc3ccc(Cl)cc3)cc2s1 [Compound I-1635]	5 nM
CCc1oc2ccc(/N=c3\[nH]c(=O)n(CC4(C)COC(C)(C)OC4)c(=O)n3Cc3ccc(Cl)cc3)cc2c1C [Compound I-1636]	9 nM
CC(C)Cc1ccc(/N=c2\[nH]c(=O)n(CC(C)(CO)CO)c(=O)n2Cc2ccc(Cl)cc2)cc1Cl [Compound I-1637]	12 nM
COC(=O)CN1CCC(Cn2c(=O)[nH]/c(=N\c3ccc(OC(C)C)c(C)c3)n(Cc3ccc(Cl)cc3)c2=O)CC1 [Compound I-1638]	13 nM
COC(=O)CN1CCC(n2c(=O)[nH]/c(=N\c3ccc(OC(C)C)c(C)c3)n(Cc3ccc(Cl)cc3)c2=O)CC1 [Compound I-1639]	14 nM
Cc1cc(/N=c2\[nH]c(=O)n(CC3CN(C(=O)OC(C)(C)C)C3)c(=O)n2Cc2ccc(Cl)cc2)ccc1OC(C)C [Compound I-1640]	13 nM
Cc1cc(/N=c2\[nH]c(=O)n(C3CN(C(=O)OC(C)(C)C)C3)c(=O)n2Cc2ccc(Cl)cc2)ccc1OC(C)C [Compound I-1641]	20 nM
CC1(C)OCC(Cn2c(=O)nc(Cc3cccc(C(F)(F)F)c3)n(Cc3ccc(Cl)cc3)c2=O)CO1 [Compound I-1642]	551 nM
